Assay [1] relates to S-(-)-34-induced hypermotility. The experiment in a line: Blockade of S-(-)-34-induced hypermotility in habituated rats. The class given is in vivo, rat. Conditions: for effect on S-(-)-34-induced hypermotility: habituated rats, S-(-)-34 50 μmol/kg s.c. As for the experimental part: It was shown that S-(-)-34-induced hypermotility in habituated rats is blocked by haloperidol, raclopride, reserpine and alpha-methyl-para tyrosine. […] The test compounds were administered consecutively at the same time.
The catecholamine synthesis inhibitor alpha-methyl-para-tyrosine (Sigma, alpha-MT;100 mg/kg, i.p.) was administered 60 minutes before […] ([…], s.c.).

For assay [2], the system named is d-amphetamine-induced hyperactivity. The experiment in a line: d-Amphetamine-induced hyperactivity in habituated rats. Conditions: d-amphetamine 5.0 mg/kg, sc. The class given is in vivo, rat.
The next assay concerns the target T1, D2 receptors (Rattus norvegicus, UniProt P61169).
T1 construct: Preparation of rat striatal membranes for (3H)-spiperone; from tissue; host or cells: rat striatum (striatal membranes)
The experiment in a line: D2 antagonist binding ([3H]-spiperone), rat striatum. Conditions: [3H]-spiperone, rat striatum; read-out: in vitro binding IC50, D2 -spip. As for the experimental part:
D2 antagonist binding. Preparation of rat striatal membranes for (3H)-spiperone (specific activity 21-24 Ci/mmol) binding was carried out in a similar manner as described for D1-binding, Hyttel et al., J. Neural. Transm., 68, 171 (1987).
IC50 values were calculated by semi-log plot and linear regression analysis.

The subject of assay [3] is 5-HT receptor. As to the kind of experiment: 5-HT metabolism (5-HIAA levels) in habituated rats. The class given is in vivo, rat (male Sprague-Dawley). As for the experimental part: (§1) Footnotes Table 3. The rats were habituated to the motility meters 60 min
SEM. The rats were immediately killed after the activity session, striata
(§2) and limbic levels of DOPAC and 5HIAA were measured by means of HPLCEC. *p
(§3) In the experiments with habituated rats no NSD was administered and the animals were killed one hour after drug administration. […] The levels were expressed as % of controls (DOPAC and 5-HIAA see Table 3). The in vivo brain microdialysis experiments were performed in conscious rats as described by Waters et al., Eur. J. Pharm., 187, 425-34 (1990).
Injection volumes were 5 mL/kg. […]

Assay [4] relates to DA receptor. The experiment in a line: DA metabolism (DOPAC, HVA levels) in habituated rats. Conditions: Rattus norvegicus, 1 h, habituated rats; for response vs control in vivo at 100 µmol/kg: 100 μmol/kg sc; for response vs control in vivo at 6.2 µmol/kg: 6.2 μmol/kg sc; for response vs control in vivo at 25 µmol/kg: 25 μmol/kg sc. Type of assay: in vivo, rat (male Sprague-Dawley). As for the experimental part:
as §1
The rats were immediately killed after the activity session, striata
as §2, §3
(§4) Injection volumes were 5 mL/kg.
After the activity session the rats were killed and the brain levels of HVA and DOPAC were measured (data are expressed as means ±SEM).

For assay [5], the system named is 5-HT receptor. The experiment in a line: 5-HTP accumulation (5-HT synthesis rate) in non-pretreated rats after NSD 1015. Type of assay: in vivo, rat (male Sprague-Dawley). Particulars: 100 sc. As for the experimental part:
observations are commented to the right. After the session the rats were
accumulation in the NErich cortical regions and 5HTP in the limbic
as §4

A further assay deals with non-pretreated rats. As to the kind of experiment: Locomotor activity and gross behavior in non-habituated (non-pretreated) rats. Particulars: 100 sc, non-pretreated rats; for Motor Act.: 30 min.
The target in the next assay is T2, 5-HT1A (Rattus norvegicus, UniProt P19327).
T2 construct: the whole brain with the exception of the brainstem and cerebellum was rapidly removed; from tissue
T2 sequence (P19327 1-422): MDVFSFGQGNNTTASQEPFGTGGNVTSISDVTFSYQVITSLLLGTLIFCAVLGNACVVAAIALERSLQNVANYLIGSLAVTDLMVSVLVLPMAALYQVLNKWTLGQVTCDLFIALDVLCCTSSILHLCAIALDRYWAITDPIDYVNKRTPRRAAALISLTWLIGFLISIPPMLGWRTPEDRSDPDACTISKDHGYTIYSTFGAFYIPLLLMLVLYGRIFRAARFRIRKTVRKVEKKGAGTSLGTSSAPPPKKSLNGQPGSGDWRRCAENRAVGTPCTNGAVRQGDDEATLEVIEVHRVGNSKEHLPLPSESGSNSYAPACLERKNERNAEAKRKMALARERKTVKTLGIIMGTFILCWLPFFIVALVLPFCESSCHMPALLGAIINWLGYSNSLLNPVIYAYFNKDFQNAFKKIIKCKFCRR
As to the kind of experiment: 5-HT1A radioligand binding ([3H]-8-OH-DPAT). Set-up: species or system rat (male Sprague-Dawley). Conditions: [3H]-8-OH-DPAT, rat cortex; read-out: in vitro binding IC50, 5HT1A. As to the method: ^b Serotonin 5HT1A ([^3 H]-8OH-DPAT, agonist) rat cortex.
5-HT1A radioligand binding. Male Sprague-Dawley rats (160-225 g) were killed by decapitation and the whole brain with the exception of the brainstem and cerebellum was rapidly removed, weighed and chilled in ice-cold 0.9% NaCl. Each brain was homogenized (Ultra-Turrax, 20 s) in 10 mL ice-cold 50 mM Tris buffer (pH 8.0 at 25° C.) containing 120 mM NaCl, 4 mM CaCl2 and 4 mM MgCl2 and centrifuged at 20,000 g's at 4° C. for 10 minutes. Pellets were resuspended in 10 mL fresh buffer and preincubated for 10 minutes in a 37° C. waterbath and then recentrifuged. Final pellets were homogenized in 100 volumes (w/v) of Tris buffer (as described above) containing 10 μM pargyline. The incubation tubes were kept on ice in triplicates and received 100 μL drug solution in water (or water for total binding) and 1000 μL membrane suspension (corresponds to 10 mg original tissue). The binding experiment was initiated by addition of 100 μL of (3H)-8-OH-DPAT (specific activity 143-158 Ci/mmol) in ascorbic acid (the final incubation concentration was 1 nM (3H)-8-OH-DPAT in 0.1% ascorbic acid). After incubation for 15 minutes at 37° C. the reaction was terminated by separation of the free radioligand from bound by rapid vacuum filtration using a cell harvester equipment (O. M. Teknik, Denmark). The tubes were rinsed with 4 mL and the filters (Whatman GF/F 25 mm) were washed twice with 4 mL ice-cold 0.9% NaCl.
The radioactivity of the filters was measured in a liquid scintillation counter (efficiency 41%) in 5 mL Picofluor®. Specific binding (70-75% of total binding) was defined as the radioactivity displaced by 10 μM 5-HT. IC50 values were calculated by semi-log plot and linear regression analysis.

Assay [6] relates to DA receptor. As to the kind of experiment: DOPA accumulation (DA synthesis rate) in non-pretreated rats after NSD 1015. Conditions: 100 sc.
Experimental: injected with NSD 1015 (100 mg/kg, i.p.) and then killed 30 min later.
In-vivo determination of rat brain monoamine metabolites and tyrosine and tryptophan hydroxylation (biochemically monitored DA and 5-HT receptor agonist or antagonist activity).
The compounds under evaluation were tested biochemically for central DA and 5-HT receptor (pre- and/or postsynaptic) stimulating and/or blocking activity. The concept of this biochemical screening method is that a DA or 5-HT receptor agonist will stimulate the receptor and through regulatory negative feed-back systems induce a decline in tyrosine or tryptophan hydroxylating activity, respectively, and a subsequent reduction in the synthesis rate of DA and 5-HT in the presynaptic neuron. […] The biochemical experiments and the determinations of Dopa and 5-HTP by means of HPLC with electrochemical detection were performed. The antagonistic effects were seen as increases in the synthesis rate (n=4), as a result of the positive feed-back upregulation of synthesis. The effects on Dopa and 5-HTP accumulation are expressed as % of controls, which were: DOPA limbic system=447±23 ng/g and DOPA striatum=1045±47ng/g, 5-HTP limbic region 241±2 ng/g (Table 2).
Animals used in the biochemical and motor activity experiments were male rats of the Sprague-Dawley strain (ALAB, Sollentuna, Sweden), weighing 200-300 g. The rats were kept 5 per cage with free access to water and food (except for the starved animals for the experiments with per oral administration, who were only allowed water the last 18 hours before testing), at least one week from arrival until used in the experiments.
All substances to be tested were dissolved in saline immediately before use, occasionally with the addition of a few drops of glacial acetic acid and/or moderate heating in order to obtain complete dissolution. Injection volumes were 5 mL/kg.
Analysis of variance (ANOVA) followed by Fischer's test was used for the statistical calculations. P values less than 0.05 were regarded statistically significant.
DOPA accumulation (DA synthesis rate) in non-pretreated rats (Table 2). After the locomotor activity session (see Table 2, above) the rats were injected with the decarboxylase inhibitor NSD 1015 (100 mg/kg, sc) and killed 30 minutes later. The DOPA accumulation in the DA -rich limbic and striatal and the NE-rich cortical (mainly hemispheres) brain areas were expressed as % of saline treated controls.
DOPA accumulation, time course after s.c. and p.o. administration (Table 2). […] NSD 1015 (100 mg/kg, sc) was injected 30 minutes before death. The data are expressed as % of saline treated controls.
The test system of a further assay is habituated rats. The experiment in a line: Locomotor activity and behavior in habituated rats. Type of assay: in vivo, rat (male Sprague-Dawley). Particulars: habituated rats. As for the experimental part:
as §1
prior to the activity session.
as §4
Locomotor activity was measured in rats which were habituated 60 minutes to the activity meters before drug injection. The activity was measured for the subsequent 60 minutes and expressed as % of controls (means ±SEM, n=4).

Where [7] appears, read: Rattus norvegicus, 1 h, 100 μmol/kg sc, 60 min, read-out: Motor Activity.

As a reminder, the IC50 is the concentration needed to halve the response being measured.

Read-outs that look alike come from different tables or passages of the source.

T1 sequence (P61169 whole entry): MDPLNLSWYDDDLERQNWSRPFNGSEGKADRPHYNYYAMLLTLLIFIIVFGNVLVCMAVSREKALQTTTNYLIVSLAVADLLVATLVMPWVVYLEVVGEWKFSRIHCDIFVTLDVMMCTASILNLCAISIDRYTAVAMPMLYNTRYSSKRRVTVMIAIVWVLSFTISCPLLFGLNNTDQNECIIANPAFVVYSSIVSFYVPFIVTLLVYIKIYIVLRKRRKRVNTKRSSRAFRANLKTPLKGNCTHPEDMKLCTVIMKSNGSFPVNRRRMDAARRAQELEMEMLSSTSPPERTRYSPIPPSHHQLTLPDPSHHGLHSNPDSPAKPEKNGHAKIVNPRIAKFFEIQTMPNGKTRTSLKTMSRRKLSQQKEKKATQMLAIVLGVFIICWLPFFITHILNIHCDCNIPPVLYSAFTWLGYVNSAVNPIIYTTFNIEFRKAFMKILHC

Regarding `O=C(CCCN1CCC(O)(c2ccc(Cl)cc2)CC1)c1ccc(F)cc1` [haloperidol], in [1], the “effect on S-(-)-34-induced hypermotility” value is listed as “blocked”.

For the molecule `COC(=O)[C@H]1[C@H]2C[C@@H]3c4[nH]c5cc(OC)ccc5c4CCN3C[C@H]2C[C@@H](OC(=O)c2cc(OC)c(OC)c(OC)c2)[C@@H]1OC` [reserpine], in assay [1], the “effect on S-(-)-34-induced hypermotility” value is “blocked”. Also, in assay [1] (reserpine 5 mg/kg, 18 h before, S-(-)-34 50 μmol/kg, sc), the “effect on locomotor stimulation produced by S-(-)-34” value was “completely prevented the locomotor stimulation”.

Regarding `C[C@H](N)Cc1ccccc1` [d-amphetamine, reference compound], the “activity of habituated rats, d-amphetamine alone” value in [2] was 871±68 % of NaCl controls.

For `CCN1CCC[C@H]1CNC(=O)c1c(O)c(Cl)cc(Cl)c1OC` [raclopride], the “effect on S-(-)-34-induced hypermotility” value in assay [1] is recorded as “blocked”.

For the molecule `CCCCN1CCC[C@@H](c2cccc(OS(=O)(=O)C(F)(F)F)c2)C1` [S-(-)-16, S-(-)-3-((3-(Trifluoromethyl)sulfonyl)oxyphenyl-N-n-butyl)-piperidine], the IC50 on D2 receptors and on 5-HT1A was 1300 nM throughout. The 5-HIAA limbic with 5-HT receptor [3] (100 μmol/kg sc) is recorded as 109 ± 4 % of saline treated controls. In addition, the response vs control in vivo at 100 µmol/kg in the assay on DA receptor [4] (read-out: DOPAC limbic) is 186 ± 2%; with DA receptor [4] (read-out: DOPAC striatum) it was 192 ± 4%; in the assay on habituated rats (setting [7]) it was 345 ± 39%. Moreover, in the assay on 5-HT receptor [5], the “5-HTP acc Limbic Region” value is recorded as 82 ± 5 % of saline controls. For the same molecule, in the assay on non-pretreated rats, the “Gross Behavioral Observations” value was “No change”. For the same molecule, the “Motor Act.” value with non-pretreated rats is recorded as 116 ± 21 % of saline controls. For the same molecule, the “DOPA acc Cortex” value in the assay on DA receptor [6] is listed as 89 ± 9 % of saline controls. Moreover, the “DOPA acc Stratium” value with DA receptor [6] is given as 234 ± 10 % of saline controls. Besides, in the assay on habituated rats (100 μmol/kg sc), the Behavioral observations entry is reported as “Activation”.

Regarding `CC(N)(Cc1ccc(O)cc1)C(=O)O` (stereo not drawn) [alpha-MT, alpha-methyl-para-tyrosine], the “motor activity, compound alone” value in assay [1] (100 mg/kg, i.p.) is “did not affect the motor activity”. Moreover, in assay [1] (alpha-MT 100 mg/kg, i.p., 60 minutes before), the “effect on locomotor stimulation produced by S-(-)-34” value is on record as “partially inhibited the locomotor stimulation”. Moreover, in assay [1], the “effect on S-(-)-34-induced hypermotility” value was “blocked”.

As to `CCN1CCC[C@@H](c2cccc(OS(=O)(=O)C(F)(F)F)c2)C1` [S-(-)-14, S-(-)-3-((3-(Trifluoromethyl)sulfonyl)oxyphenyl-N-ethyl)-piperidine], the IC50 came out at 7100 nM at D2 receptors and 1300 nM at 5-HT1A. Moreover, the 5-HIAA limbic in the assay with 5-HT receptor [3] (100 μmol/kg sc) is reported as 98 ± 33 % of saline treated controls. Also, the response vs control in vivo at 100 µmol/kg in the assay on DA receptor [4] (read-out: DOPAC limbic) stood at 223 ± 39%; with DA receptor [4] (read-out: DOPAC striatum), 293 ± 29%; in the assay with habituated rats (setting [7]), 404 ± 205%. Besides, in the assay with 5-HT receptor [5], the “5-HTP acc Limbic Region” value is 76 ± 9 % of saline controls. In addition, the “Gross Behavioral Observations” value in the assay on non-pretreated rats is recorded as “No change”. Also, the “Motor Act.” value in the assay on non-pretreated rats is reported as 103 ± 19 % of saline controls. The “DOPA acc Cortex” value in the assay with DA receptor [6] is given as 80 ± 4 % of saline controls. For the same molecule, the “DOPA acc Stratium” value in the assay with DA receptor [6] is given as 286 ± 33 % of saline controls. Besides, the Behavioral observations result in the assay on habituated rats (100 μmol/kg sc) was “Activation”.

For `CCCN1CCC[C@@H](c2cccc(OS(=O)(=O)C(F)(F)F)c2)C1` [S-(-)-15, S-(-)-3-((3-(Trifluoromethyl)sulfonyl)oxyphenyl-N-n-propyl)-piperidine], the IC50 turned out to be 1600 nM on D2 receptors and 2300 nM at 5-HT1A. The results for the 5-HIAA limbic in the assay with 5-HT receptor [3] (6.2 μmol/kg sc), in the assay on 5-HT receptor [3] (25 μmol/kg sc) and in the assay with 5-HT receptor [3] (100 μmol/kg sc) were 139 ± 9 % of saline treated controls, 126 ± 5 % of saline treated controls and 140 ± 11 % of saline treated controls, respectively. For the same molecule, the response vs control in vivo at 6.2 µmol/kg is 134 ± 10% in the assay with DA receptor [4] (read-out: DOPAC limbic) and 118 ± 10% in the assay on DA receptor [4] (read-out: DOPAC striatum). The response vs control in vivo at 25 µmol/kg in the assay on DA receptor [4] (read-out: DOPAC limbic) is 145 ± 11%; in the assay on DA receptor [4] (read-out: DOPAC striatum) it was 175 ± 8%; in the assay on habituated rats (Rattus norvegicus, 1 h, 25 μmol/kg sc, 60 min, read-out: Motor Activity), 128 ± 33%. Further, the response vs control in vivo at 100 µmol/kg stood at 196 ± 16% in the assay with DA receptor [4] (read-out: DOPAC limbic), 217 ± 3% in the assay with DA receptor [4] (read-out: DOPAC striatum) and 445 ± 131% in the assay on habituated rats (setting [7]). For the same molecule, the results for the Behavioral observations entry in the assay with habituated rats (6.2 μmol/kg sc), in the assay on habituated rats (25 μmol/kg sc) and in the assay with habituated rats (100 μmol/kg sc) were “No change”, “No change” and “Activation”, respectively. In addition, the “Motor Activity” value in the assay on habituated rats (6.2 μmol/kg sc, 60 min) is reported as 91 ± 94 % of saline treated controls.

The values are drawn from patent US5594024A, “Centrally actig substituted phenylazacycloalkanes” (priority 1995, dated 1997).
